Source: patent US20250197424A1, “QUINOLINE COMPOUND AND USE THEREOF” (SHANGHAI PHARMACEUTICALS HOLDING CO., LTD., priority 2022, published 2025)
Where a name gives a salt, the structure may show the parent alone.

target: GTP-KRAS-G12D:SOS1 (Homo sapiens (Human), UniProt P01116, G12D); assay: GTP-KRAS-G12D:SOS1 binding inhibition
Protocol: The IC50 of the compounds was fitted using a nonlinear regression equation with GraphPad Prism 8. The results are presented in Table 2: • Negative control: DMSO • Positive control: 100 μM BI-2852
The following nonlinear fitting formula was used to obtain the IC50 (half-maximal inhibitory concentration) of the compounds:
[formula] • X: logarithm of the compound concentration • Y: 665/615 Ratio

Chain of GTP-KRAS-G12D:SOS1 (P01116-2 other isoform, or with tags, fused parts or gaps G12D): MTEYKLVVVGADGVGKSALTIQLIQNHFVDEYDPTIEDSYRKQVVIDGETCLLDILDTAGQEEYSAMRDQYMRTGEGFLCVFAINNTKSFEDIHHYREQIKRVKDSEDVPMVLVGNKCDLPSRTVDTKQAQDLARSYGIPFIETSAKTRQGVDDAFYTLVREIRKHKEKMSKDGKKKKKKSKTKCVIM

Which IC50 does the source give for `CCc1cccc2cc(O)cc(-c3c(F)c4c5c(nc(OC[C@@]67CCCN6C[C@H](F)C7)nc5c3F)N3CC5CCC(N5)C3CCO4)c12` (single isomer, unassigned) [Compound 13b, 4-((2R or 2S, 6aS,7S,10R)-1,3-difluoro-14-(((2R,7aS)-2-fluorotetrahydro-1H-pyrrolizin-7a(5H)-yl)methoxy)-5,6,6a,7,8,9,10,11-octahydro-7,10-epiminoazepino[1′,2′: 5,6][1,5]oxazocino[4,3,2-de]quinazolin-2-yl)-5-ethylnaphthalen-2-ol dihydrochloride] here?
The IC50 was 8930 nM.

How did the IC50 turn out when `CCc1cccc2cc(O)cc(-c3c(F)c4c5c(nc(OC[C@]67C[C@@H](F)CN6C[C@H](CO)C7)nc5c3F)N3CC5CCC(N5)C3CO4)c12` (single isomer, unassigned) [Compound 21a, 4-((2R or 2S, 5aS,6S,9R)-1,3-Difluoro-13-(((2R,6R,7aS)-2-fluoro-6-(hydroxymethyl)tetrahydro-1H-pyrrolizin-7a(5H)-yl)methoxy)-5a,6,7,8,9,10-hexahydro-5H-6,9-epiminoazepino[2′,1′:3,4][1,4]oxazepino[5,6,7-de]quinazolin-2-yl)-5-ethylnaphthalen-2-ol dihydrochloride] was run?
The IC50 was 7220 nM.

How did the IC50 turn out when `Cc1cc(N)nc(-c2c(F)c3c4c(nc(OC[C@@]56CCCN5C[C@H](F)C6)nc4c2F)N2CC4CCC(N4)C2CO3)c1C(F)(F)F` (single isomer, unassigned) [10a′, (S or R)-6-((5aS,6S,9R)-1,3-Difluoro-13-(((2R,7aS)-2-fluorotetrahydro-1H-pyrrolizin-7a(5H)-yl)methoxy)-5a,6,7,8,9,10-hexahydro-5H-6,9-epiminoazepino[2′,1′:3,4][1,4]oxazepino[5,6,7-de]quinazolin-2-yl)-4-methyl-5-(trifluoromethyl)pyridin-2-amine] was run?
The IC50 was 700 nM.

With `Oc1cc(-c2c(F)c3c4c(nc(OC[C@@]56CCCN5C[C@H](F)C6)nc4c2F)N2CC4CCC(N4)C2CO3)c2c(C3CC3)cccc2c1` (single isomer, unassigned) [Compound 11b, 5-cyclopropyl-4-((2S or 2R,5aS,6S,9R)-1,3-difluoro-13-(((2R,7aS)-2-fluorotetrahydro-1H-pyrrolizin-7a(5H)-yl)methoxy)-5a,6,7,8,9,10-hexahydro-5H-6,9-epiminoazepino[2′,1′:3,4][1,4]oxazepino[5,6,7-de]quinazolin-2-yl) naphthalen-2-ol dihydrochloride] as the compound, how does the IC50 read?
Its IC50 is 18.5 nM.

`COc1ccc(-c2cc[nH]n2)c(-c2c(F)c3c4c(nc(OC[C@@]56CCCN5C[C@H](F)C6)nc4c2F)N2CC4CCC(N4)C2CO3)c1` (stereo partly drawn) [Compound 17, (5aS,6S,9R)-1,3-Difluoro-13-(((2R,7aS)-2-fluorotetrahydro-1H-pyrrolizin-7a(5H)-yl)methoxy)-2-(5-methoxy-2-(1H-pyrazol-3-yl)phenyl)-5a,6,7,8,9,10-hexahydro-5H-6,9-epiminoazepino[2′,1′:3,4][1,4]oxazepino[5,6,7-de]quinazoline dihydrochloride] was tested. Which IC50 did it give?
Its IC50 is 8310 nM.

Which IC50 does the source give for `Oc1cc(Cl)c2c(c1)C1(CC2)CCc2c(nc(OC[C@@]34CCCN3C[C@H](F)C4)nc2N2CC3CCC(C2)N3)C1F` (single isomer, unassigned) [Compound 8c, (1S or 1R,8′R or 8'S)-4′-((1R,5S)-3,8-diazabicyclo[3.2.1]octan-3-yl)-4-chloro-8′-fluoro-2′-(((2R,7aS)-2-fluorotetrahydro-1H-pyrrolizin-7a(5H)-yl)methoxy)-2,3,5′,8′-tetrahydro-6′H-spiro[indene-1,7′-quinazolin]-6-ol dihydrochloride] here?
Its IC50 is 4010 nM.

How did the IC50 turn out when `CCc1cccc2cc(O)cc(-c3c(F)c4c5c(nc(OC[C@@]67C[C@H](O)CN6C[C@H](F)C7)nc5c3F)N3CC5CCC(N5)C3CO4)c12` (single isomer, unassigned) [Compound 15b, (2S,6R,7aS)-7a-((((2S or 2R,5aS,6S,9R)-2-(8-ethyl-3-hydroxynaphthalen-1-yl)-1,3-difluoro-5a,6,7,8,9,10-hexahydro-5H-6,9-epiminoazepino[2′,1′:3,4][1,4]oxazepino[5,6,7-de]quinazolin-13-yl)oxy)methyl)-6-fluorohexahydro-1H-pyrrolizin-2-ol dihydrochloride] was run?
The IC50 was 6.54 nM.

`Nc1cc2ccccc2c(-c2c(F)c3c4c(nc(OC[C@@]56CCCN5C[C@H](F)C6)nc4c2F)N2CC4CCC(N4)C2CO3)n1` (stereo partly drawn) [Compound 22, 1-((5aS,6S,9R)-1,3-Difluoro-13-(((2R,7aS)-2-fluorotetrahydro-1H-pyrrolizin-7a(5H)-yl)methoxy)-5a,6,7,8,9,10-hexahydro-5H-6,9-epiminoazepino[2′,1′:3,4][1,4]oxazepino[5,6,7-de]quinazolin-2-yl) isoquinolin-3-amine] was tested. Which IC50 did it give?
Its IC50 is 13.4 nM.

How did the IC50 turn out when `Nc1nc2c(-c3c(F)c4c5c(nc(OC[C@@]67CCCN6C[C@H](F)C7)nc5c3F)N3CC5CCC(N5)C3CO4)ccc(F)c2s1` (stereo partly drawn) [Compound 19, 4-((5aS,6S,9R)-1,3-Difluoro-13-(((2R,7aS)-2-fluorotetrahydro-1H-pyrrolizin-7a(5H)-yl)methoxy)-5a,6,7,8,9,10-hexahydro-5H-6,9-epiminoazepino[2′,1′:3,4][1,4]oxazepino[5,6,7-de]quinazolin-2-yl)-7-fluorobenzo[d]thiazol-2-amine dihydrochloride] was run?
The IC50 was 12.7 nM.

For `CCc1cccc2cc(O)cc(-c3c(F)c4c5c(nc(OC[C@]67C[C@@H](F)CN6C[C@@H](CO)C7)nc5c3F)N3CC5CCC(N5)C3CO4)c12` (single isomer, unassigned) [Compound 23a, 4-((2R or 2S, 5aS,6S,9R)-1,3-Difluoro-13-(((2R,6S,7aS)-2-fluoro-6-(hydroxymethyl)tetrahydro-1H-pyrrolizin-7a(5H)-yl)methoxy)-5a,6,7,8,9,10-hexahydro-5H-6,9-epiminoazepino[2′,1′:3,4][1,4]oxazepino[5,6,7-de]quinazolin-2-yl)-5-ethylnaphthalen-2-ol dihydrochloride], which IC50 is on record?
Its IC50 is 3690 nM.

How did the IC50 turn out when `Cc1cc(N)nc(-c2c(F)c3c4c(nc(OC[C@@]56CCCN5C[C@H](F)C6)nc4c2F)N2CC4CCC(N4)C2CO3)c1C(F)(F)F` (single isomer, unassigned) [10b′, (R or S)-6-((5aS,6S,9R)-1,3-difluoro-13-(((2R,7aS)-2-fluorotetrahydro-1H-pyrrolizin-7a(5H)-yl)methoxy)-5a,6,7,8,9,10-hexahydro-5H-6,9-epiminoazepino[2′,1′:3,4][1,4]oxazepino[5,6,7-de]quinazolin-2-yl)-4-methyl-5-(trifluoromethyl)pyridin-2-amine] was run?
The IC50 was 11.7 nM.

Which IC50 does the source give for `CCc1cccc2cc(O)cc(-c3c(F)c4c5c(nc(OC[C@]67C[C@@H](F)CN6C[C@@H](OC)C7)nc5c3F)N3CC5CCC(N5)C3CO4)c12` (single isomer, unassigned) [Compound 16b, 4-((2S or 2R,5aS,6S,9R)-1,3-difluoro-13-(((2R,6S,7aS)-2-fluoro-6-methoxytetrahydro-1H-pyrrolizin-7a(5H)-yl)methoxy)-5a,6,7,8,9,10-hexahydro-5H-6,9-epiminoazepino[2′, l′: 3,4][1,4]oxazepino[5,6,7-de]quinazolin-2-yl)-5-ethylnaphthalen-2-ol dihydrochloride] here?
The IC50 was 7.55 nM.
